# From patent publication US12325697B2 (Nimbus Clio, Inc., priority 2021, dated 2025)
# Key:
# [1] = target: Recombinant human Cbl-b (aa 36-427) (Homo sapiens (Human), UniProt Q13191); assay: Cbl-b Biochemical Assay (TR-FRET); details: read-out: TR-FRET hCbl-b IC50
# Procedure, shortened: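 Two-step TR-FRET: 6 nM biotinylated Cbl-b preincubated 30-60 min with compound, then 60 min at RT with 1-2.5 nM Src-Zap70 and 0.5 mM ATP in HEPES pH 7.0 buffer, 1% DMSO. Stopped with 5 mM EDTA plus 100 nM UBE2D2-Ub-FL-BODIPY and 1 nM streptavidin-Tb, 60 min; 520 nm signal; IC50 from 4-parameter fit.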
# [2] = target: Recombinant human c-Cbl (aa 47-435) (Homo sapiens (Human), UniProt P22681); assay: c-Cbl Biochemical Assay (TR-FRET)
# Procedure, shortened: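 Biotinylated c-Cbl (6 nM) preincubated 30 min RT with compound, then reacted 60-90 min with Src-Zap70 (2.5-10 nM) and 0.5 mM ATP, pH 7.0 HEPES buffer. Stopped with EDTA; 100 nM Bodipy-ubiquitinated UBE2D2 binding read by TR-FRET after 60 min; IC50 from 4-parameter fit.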
# Sequence of Recombinant human c-Cbl (aa 47-435) (P22681 47-435): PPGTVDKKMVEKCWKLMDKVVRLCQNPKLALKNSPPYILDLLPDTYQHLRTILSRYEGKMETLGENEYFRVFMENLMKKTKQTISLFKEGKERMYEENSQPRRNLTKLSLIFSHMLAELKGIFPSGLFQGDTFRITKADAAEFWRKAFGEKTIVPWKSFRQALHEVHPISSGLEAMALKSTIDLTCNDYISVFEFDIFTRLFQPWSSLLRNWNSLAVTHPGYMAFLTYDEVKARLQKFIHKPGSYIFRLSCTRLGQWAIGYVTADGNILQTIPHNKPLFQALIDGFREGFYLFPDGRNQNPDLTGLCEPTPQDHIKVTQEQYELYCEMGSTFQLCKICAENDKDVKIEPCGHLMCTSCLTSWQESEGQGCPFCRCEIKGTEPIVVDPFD
# Sequence of Recombinant human Cbl-b (aa 36-427) (Q13191 36-427): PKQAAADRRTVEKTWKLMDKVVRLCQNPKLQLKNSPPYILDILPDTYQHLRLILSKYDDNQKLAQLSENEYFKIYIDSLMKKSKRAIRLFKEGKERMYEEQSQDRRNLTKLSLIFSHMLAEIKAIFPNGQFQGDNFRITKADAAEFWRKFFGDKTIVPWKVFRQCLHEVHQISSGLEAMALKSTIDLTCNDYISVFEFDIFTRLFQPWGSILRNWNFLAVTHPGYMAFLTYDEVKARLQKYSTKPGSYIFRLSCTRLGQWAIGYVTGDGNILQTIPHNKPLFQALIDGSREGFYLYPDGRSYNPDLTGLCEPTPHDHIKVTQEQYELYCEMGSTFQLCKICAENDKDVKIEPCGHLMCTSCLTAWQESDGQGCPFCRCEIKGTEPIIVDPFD
Structure (SMILES),IC50 [1] [µM],IC50 [2] [µM]
"Cn1cnnc1-c1cc(F)ccc1-c1cc(C2CC2)nc(N2Cc3c(F)cc(CNCC4(O)CCC4)cc3C2=O)c1 [AMJ-1, 2-{6-Cyclopropyl-4-[4-fluoro-2-(4-methyl-1,2,4-triazol-3-yl)phenyl]pyridin-2-yl}-4-fluoro-6-({[(1-hydroxycyclobutyl)methyl]amino}methyl)-3H-isoindol-1-one]",≤ 0.2,≤ 0.2
"CNCCNCc1cc2c(c(C(F)(F)F)c1)CN(c1cc(-c3ccc(C#N)cc3-c3nncn3C)cc(C3CC3)n1)C2=O [AMK-3, 4-{2-Cyclopropyl-6-[6-({[2-(methylamino)ethyl]amino}methyl)-1-oxo-4-(trifluoromethyl)-3H-isoindol-2-yl]pyridin-4-yl}-3-(4-methyl-1,2,4-triazol-3-yl)benzonitrile]",≤ 0.2,≤ 0.2
"CN(Cc1cc(F)c2c(c1)C(=O)N(c1cc(-c3ccc(F)cc3-c3nncn3C)cc(C3CC3)n1)C2)CC1(O)CCC1 [AML-1, 2-{6-Cyclopropyl-4-[4-fluoro-2-(4-methyl-1,2,4-triazol-3-yl)phenyl]pyridin-2-yl}-4-fluoro-6-({[(1-hydroxycyclobutyl)methyl](methyl)amino}methyl)-3H-isoindol-1-one]",≤ 0.2,≤ 0.2
"CN(Cc1ccc2c(c1)C(=O)N(c1cc(-c3ccc(F)cc3-c3nncn3C)cc(C3CC3)n1)C2)CC(C)(C)O [AMM-1, 2-{6-Cyclopropyl-4-[4-fluoro-2-(4-methyl-1,2,4-triazol-3-yl)phenyl]pyridin-2-yl}-6-{[(2-hydroxy-2-methylpropyl)(methyl)amino]methyl}-3H-isoindol-1-one]",≤ 0.2,≤ 0.2
"Cn1cnnc1-c1cc(C#N)ccc1-c1cc(C2CC2)nc(N2Cc3ccc(CN4C[C@@H]5C[C@H]4CO5)cc3C2=O)c1 [AMN-1, 4-(2-Cyclopropyl-6-{6-[(1S,4S)-2-oxa-5-azabicyclo[2.2.1]heptan-5-ylmethyl]-1-oxo-3H-isoindol-2-yl}pyridin-4-yl)-3-(4-methyl-1,2,4-triazol-3-yl)benzonitrile]",≤ 0.2,≤ 0.2
"Cn1cnnc1-c1cc(C#N)ccc1-c1cc(C2CC2)nc(N2Cc3ccc(CNC4CCOCC4)cc3C2=O)c1 [AMO-2, 4-(2-Cyclopropyl-6-{6-[(oxan-4-ylamino)methyl]-1-oxo-3H-isoindol-2-yl}pyridin-4-yl)-3-(4-methyl-1,2,4-triazol-3-yl)benzonitrile]",≤ 0.2,≤ 0.2
"COCCNCc1cc2c(c(F)c1F)CN(c1cc(-c3ccc(C#N)cc3-c3nncn3C)cc(C3CC3)n1)C2=O [AMP-1, 4-[2-Cyclopropyl-6-(4,5-difluoro-6-{[(2-methoxyethyl)amino]methyl}-1-oxo-3H-isoindol-2-yl)pyridin-4-yl]-3-(4-methyl-1,2,4-triazol-3-yl)benzonitrile]",≤ 0.2,≤ 0.2
"CN(Cc1cc(F)c2c(c1)C(=O)N(c1cc(-c3ccc(C#N)cc3-c3nncn3C)cc(C3CC3)n1)C2)C1CC1 [AMQ-2, 4-[2-Cyclopropyl-6-(6-{[cyclopropyl(methyl)amino]methyl}-4-fluoro-1-oxo-3H-isoindol-2-yl)pyridin-4-yl]-3-(4-methyl-1,2,4-triazol-3-yl)benzonitrile]",≤ 0.2,≤ 0.2
"Cn1cnnc1-c1cc(C#N)ccc1-c1cc(C2CC2)nc(N2Cc3c(F)cc(CN4CCC[C@](C)(O)C4)cc3C2=O)c1 [AMR-2, 4-[2-Cyclopropyl-6-(4-fluoro-6-{[(3S)-3-hydroxy-3-methylpiperidin-1-yl]methyl}-1-oxo-3H-isoindol-2-yl)pyridin-4-yl]-3-(4-methyl-1,2,4-triazol-3-yl)benzonitrile]",≤ 0.2,≤ 0.2
"Cn1cnnc1-c1cc(C#N)ccc1-c1cc(C2CC2)nc(N2Cc3c(F)cc(CN4CC5(COC5)C4)cc3C2=O)c1 [AMS-2, 4-[2-Cyclopropyl-6-(4-fluoro-6-{2-oxa-6-azaspiro [3.3]heptan-6-ylmethyl}-1-oxo-3H-isoindol-2-yl)pyridin-4-yl]-3-(4-methyl-1,2,4-triazol-3-yl)benzonitrile]",≤ 0.2,≤ 0.2
"Cn1cnnc1-c1cc(C#N)ccc1-c1cc(C2CC2)nc(N2Cc3ccc(C(C)(C)NCC4COC4)cc3C2=O)c1 [AMT-2, 4-[2-Cyclopropyl-6-(6-{2-[(oxetan-3-ylmethyl)amino]propan-2-yl}-1-oxo-3H-isoindol-2-yl)pyridin-4-yl]-3-(4-methyl-1,2,4-triazol-3-yl) benzonitrile]",≤ 0.2,≤ 0.2
"Cn1cnnc1-c1cc(C#N)ccc1-c1cc(C2CC2)nc(N2Cc3ccc(CNCC4(C)COC4)cc3C2=O)c1 [AMU-2, 4-{2-Cyclopropyl-6-[6-({[(3-methyloxetan-3-yl)methyl]amino}methyl)-1-oxo-3H-isoindol-2-yl]pyridin-4-yl}-3-(4-methyl-1,2,4-triazol-3-yl)benzonitrile]",≤ 0.2,≤ 0.2
"Cn1cnnc1-c1cc(C#N)ccc1-c1cc(C2CC2)nc(N2Cc3ccc(CNC4COC4)cc3C2=O)c1 [AMV-2, 4-(2-Cyclopropyl-6-{6-[(oxetan-3-ylamino)methyl]-1-oxo-3H-isoindol-2-yl}pyridin-4-yl)-3-(4-methyl-1,2,4-triazol-3-yl)benzonitrile]",≤ 0.2,≤ 0.2
"CN(Cc1cc(F)c2c(c1)C(=O)N(c1cc(-c3ccc(C#N)cc3-c3nncn3C)cc(C3CC3)n1)C2)CC1(O)CCC1 [AMW-2, 4-{2-Cyclopropyl-6-[4-fluoro-6-({[(1-hydroxycyclobutyl)methyl](methyl)amino}methyl)-1-oxo-3H-isoindol-2-yl]pyridin-4-yl}-3-(4-methyl-1,2,4-triazol-3-yl)benzonitrile]",≤ 0.2,≤ 0.2
"Cn1cnnc1-c1cc(C#N)ccc1-c1cc(C2CC2)nc(N2Cc3c(F)cc(CN4CC[C@H]5C[C@H]54)cc3C2=O)c1 [AMX-3, 4-(2-{6-[(1R,5S)-2-Azabicyclo[3.1.0]hexan-2-ylmethyl]-4-fluoro-1-oxo-3H-isoindol-2-yl}-6-cyclopropylpyridin-4-yl)-3-(4-methyl-1,2,4-triazol-3-yl)benzonitrile]",≤ 0.2,≤ 0.2
"Cn1cnnc1-c1cc(C#N)ccc1-c1cc(C2CC2)nc(N2Cc3c(F)cc(CN4CC[C@@H]5C[C@@H]54)cc3C2=O)c1 [AMY-1, 4-(2-{6-[(1S,5R)-2-Azabicyclo[3.1.0]hexan-2-ylmethyl]-4-fluoro-1-oxo-3H-isoindol-2-yl}-6-cyclopropylpyridin-4-yl)-3-(4-methyl-1,2,4-triazol-3-yl)benzonitrile]",≤ 0.2,≤ 0.2
"COCCN(C)Cc1cc2c(c(F)c1F)CN(c1cc(-c3ccc(C#N)cc3-c3nncn3C)cc(C3CC3)n1)C2=O [AMZ-3, 4-[2-Cyclopropyl-6-(4,5-difluoro-6-{[(2-methoxyethyl)(methyl)amino]methyl}-1-oxo-3H-isoindol-2-yl)pyridin-4-yl]-3-(4-methyl-1,2,4-triazol-3-yl)benzonitrile]",≤ 0.2,≤ 0.2
"Cn1cnnc1-c1cc(C#N)ccc1-c1cc(C2CC2)nc(N2Cc3ccc(CN4CC5CC5C4)cc3C2=O)c1 (stereo not drawn) [ANA-1, 4-[2-(6-{3-Azabicyclo[3.1.0]hexan-3-ylmethyl}-1-oxo-3H-isoindol-2-yl)-6-cyclopropylpyridin-4-yl]-3-(4-methyl-1,2,4-triazol-3-yl)benzonitrile]",≤ 0.2,≤ 0.2
"Cn1cnnc1-c1cc(C#N)ccc1-c1cc(C2CC2)nc(N2Cc3c(F)cc(CNCC4COC4)cc3C2=O)c1 [ANB-1, 4-[2-Cyclopropyl-6-(4-fluoro-6-{[(oxetan-3-ylmethyl)amino]methyl}-1-oxo-3H-isoindol-2-yl)pyridin-4-yl]-3-(4-methyl-1,2,4-triazol-3-yl)benzonitrile]",≤ 0.2,≤ 0.2
"C[C@@H]1[C@@H](O)CCN1Cc1cc(F)c2c(c1)C(=O)N(c1cc(-c3ccc(C#N)cc3-c3nncn3C)cc(C3CC3)n1)C2 [ANC-2, 4-[2-Cyclopropyl-6-(4-fluoro-6-{[(2R,3S)-3-hydroxy-2-methylpyrrolidin-1-yl]methyl}-1-oxo-3H-isoindol-2-yl)pyridin-4-yl]-3-(4-methyl-1,2,4-triazol-3-yl)benzonitrile]",≤ 0.2,≤ 0.2
"Cn1cnnc1-c1cc(C#N)ccc1-c1cc(C2CC2)nc(N2Cc3ccc(CN4CCC5(CC5)C4)cc3C2=O)c1 [AND-1, 4-[2-(6-{5-Azaspiro[2.4]heptan-5-ylmethyl}-1-oxo-3H-isoindol-2-yl)-6-cyclopropylpyridin-4-yl]-3-(4-methyl-1,2,4-triazol-3-yl)benzonitrile]",≤ 0.2,≤ 0.2
"Cn1cnnc1-c1cc(C#N)ccc1-c1cc(C2CC2)nc(N2Cc3c(cc(CNCC4COC4)c(F)c3F)C2=O)c1 [ANE-1, 4-[2-Cyclopropyl-6-(4,5-difluoro-6-{[(oxetan-3-ylmethyl)amino]methyl}-1-oxo-3H-isoindol-2-yl)pyridin-4-yl]-3-(4-methyl-1,2,4-triazol-3-yl)benzonitrile]",≤ 0.2,≤ 0.2
"Cn1cnnc1-c1cc(C#N)ccc1-c1cc(C2CC2)nc(N2Cc3ccc(CNC4CCC4)cc3C2=O)c1 [ANI-2, 4-(2-{6-[(Cyclobutylamino)methyl]-1-oxo-3H-isoindol-2-yl}-6-cyclopropylpyridin-4-yl)-3-(4-methyl-1,2,4-triazol-3-yl)benzonitrile]",≤ 0.2,≤ 0.2
"C[C@@H](NCc1ccc2c(c1)C(=O)N(c1cc(-c3ccc(C#N)cc3-c3nncn3C)cc(C3CC3)n1)C2)C1COC1 [ANJ-2, (R)-4-(2-Cyclopropyl-6-(6-(((1-(oxetan-3-yl)ethyl)amino)methyl)-1-oxoisoindolin-2-yl)pyridin-4-yl)-3-(4-methyl-4H-1,2,4-triazol-3-yl)benzonitrile]",≤ 0.2,≤ 0.2
